Assay results taken from patent US20230286946A1, “DIFLUOROMETHYL-PYRIDIN-2-YL TRIAZOLES” (Boehringer Ingelheim International GmbH, priority 2020, published 2023).

Tests used:
[1] = biological target: T1, human GABAA α5β3γ2s receptor (Homo sapiens, UniProt P18507+P31644); test: Assay A: in vitro inhibition of 3H-flumazenil binding, HEK cells expressing the human GABAA α5β3γ2s receptor; conditions: read-out: Assay A: GABAA α 5 β 3 γ 2s Ki
T1 sequence (P18507 1-475): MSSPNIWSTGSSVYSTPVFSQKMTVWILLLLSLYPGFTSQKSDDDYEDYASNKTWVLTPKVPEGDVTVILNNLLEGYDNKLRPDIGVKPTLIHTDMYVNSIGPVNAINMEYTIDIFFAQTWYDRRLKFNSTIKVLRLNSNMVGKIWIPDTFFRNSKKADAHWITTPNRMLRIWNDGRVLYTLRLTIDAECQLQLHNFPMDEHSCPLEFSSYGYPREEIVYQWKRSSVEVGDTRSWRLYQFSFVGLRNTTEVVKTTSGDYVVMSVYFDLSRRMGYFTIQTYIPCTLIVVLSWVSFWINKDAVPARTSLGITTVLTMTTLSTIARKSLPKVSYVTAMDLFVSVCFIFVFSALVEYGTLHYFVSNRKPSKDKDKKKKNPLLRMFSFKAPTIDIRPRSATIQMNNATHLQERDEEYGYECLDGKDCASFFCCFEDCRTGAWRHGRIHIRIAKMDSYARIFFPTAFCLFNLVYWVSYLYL
T1 sequence (P31644 1-462): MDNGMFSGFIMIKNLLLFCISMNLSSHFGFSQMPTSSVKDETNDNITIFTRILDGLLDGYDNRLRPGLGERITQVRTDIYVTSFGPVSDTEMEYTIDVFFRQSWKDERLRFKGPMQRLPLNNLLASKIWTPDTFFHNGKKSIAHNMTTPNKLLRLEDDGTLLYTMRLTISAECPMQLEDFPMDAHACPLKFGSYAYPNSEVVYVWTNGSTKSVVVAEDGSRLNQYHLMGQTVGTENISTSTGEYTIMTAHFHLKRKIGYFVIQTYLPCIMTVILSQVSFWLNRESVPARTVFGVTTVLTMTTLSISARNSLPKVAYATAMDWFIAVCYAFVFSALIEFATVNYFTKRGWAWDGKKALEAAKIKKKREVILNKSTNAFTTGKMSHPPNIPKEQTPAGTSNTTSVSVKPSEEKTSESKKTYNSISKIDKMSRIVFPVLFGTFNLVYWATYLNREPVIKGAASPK
Protocol: Cell Cultures and Membrane Preparation
HEK-293 cell lines with stable expression of recombinant human GABAA α5ß3 γ2s receptors (plasmid H46/E9/B10) are seeded in T175 polystyrene flasks or roller bottles (1700 cm^2, Fisher Scientific CCI-431191), and cultured (37° C., 5% CO2) in Dulbecco's Modified Eagle Medium (DMEM) with GlutaMAX™ supplemented with 10% fetal bovine serum and one or both of the following antibiotics: hygromycin B ([…]; γ2 subunit) or G418 (0.5 mg/ml; […]).
When the cultures reach confluency, the DMEM is removed and the cells are washed (10 ml for T175 flasks; 50 ml for roller bottles) once in Dulbecco's Phosphate Buffered Saline (DPBS). Following addition of DPBS to the cultures (10 ml for T175 flasks; 100 ml for roller bottles) for approximately 5 min cells are easily detached from the surface by shaking or tapping the flask gently. The cell suspension is transferred to Falcon tubes and centrifuged at 23,500×g for 10 min at 2° C. The pellet is washed once in 15 ml Tris-citrate buffer (50 mM, pH 7.1) using an Ultra-Turrax homogenizer and centrifuged at 2° C. for 10 min at 27,000×g. The washed pellet is re-suspended in 15 ml Tris-citrate buffer and frozen at −80° C. until the day of the binding experiment.
On the day of the experiment the cell membrane preparation is thawed and centrifuged at 2° C. for 10 min at 27,000×g. The pellet is re-suspended, using an Ultra-Turrax homogenizer in Tris-citrate buffer, to 15-50 µg protein per assay and then used for binding assays.
Non-specific binding is determined using clonazepam ([…]).
All dilutions of test compounds and incubation of assay are performed in glass vials/96-vial plates. […] Compounds are dissolved in 100% DMSO (10 mM stock), diluted in 48% ethanol-water, and tested in triplicate in serial 1:3 or 1:10 dilutions. When screening large numbers of compounds only one concentration of each compound is tested in single wells. Reference compounds are not included routinely, but for each experiment performed total and nonspecific binding is compared to data obtained during validation of the assay.
Binding is either terminated by rapid filtration onto
1) Whatman GF/C glass fibre filters using a Brandel Cell harvester, followed by 5 washes with 1 ml ice-cold buffer or onto 2) UniFilter GF/C glass fibre filter plates using a Tomtec cell harvester, followed by washing with approximately 5 ml ice-cold buffer.
The amount of radioactivity on the filters is determined by conventional liquid scintillation counting using a
1) Tri-Garb™ counter (PerkinElmer Life and Analytical Sciences) for separate large filters or
2) Topcount™ counter (PerkinElmer Life and Analytical Sciences) for 96-well filter plates.
Specific binding is total binding minus non-specific binding.
The IC50 value for a test compound is determined based on the equation: […]
where B is the binding in percentage of total specific binding; C is the concentration of test compound; and n is the Hill coefficient. For screening purposes n is set to 1. The IC50 value is calculated from the concentration response curves by the non-linear regression method using the curve-fitting program GraphPad Prism.
The Ki value for a test compound can be calculated from the IC50 value using the equation by Cheng and Prusoff: […]

[2] = Metabolic stability in human liver microsomes (Human MST); format: in vitro ADME; conditions: pH 7.6, pooled human liver microsomes, 37° C., read-out: Human MST t½
Protocol: Assessment of Metabolic Stability in Human Liver Microsomes (Human MST) The metabolic stability of the compounds according to the invention may be investigated as follows: The metabolic degradation of the test compound is assayed at 37° C. with pooled human liver microsomes. The final incubation volume of 100 μL per time point contains TRIS buffer pH 7.6 at room temperature (0.1 M), MgCl2 (5 mM), microsomal protein (1 mg/mL) and the test compound at a final concentration of 1 μM. Following a short pre-incubation period at 37° C., the reactions are initiated by addition of beta-nicotinamide adenine dinucleotide phosphate, reduced form (NADPH, 1 mM), and terminated by transferring an aliquot into solvent after different time points. After centrifugation (10000 g, 5 min), an aliquot of the supernatant is assayed by LCMS/MS for the amount of parent compound. The half-life (t1/2) is determined by the slope of the semi-logarithmic plot of the concentration-time profile.

Cc1nnn(-c2ccc(C(F)F)cn2)c1COc1ccc(-c2cnn(C)c2C)nn1 [Example 9]
Ki [1]: 13 nM | half-life at 1 μM [2]: 1.68 h
